# Data: patent publication US20190105367A1, “ANTIMICROBIAL 4-OXOQUINOLIZINES” (Emergent Product Development Gaithersburg Inc., priority 2011, published 2019)
# Where two headings read alike, the source gives them in different places.
# Legend:
# [1] = test system: strains of A. baumannii and one strain of Acinetobacter sp.; experiment: MIC with sub-inhibitory concentrations (0.25x MIC) of polymyxin B, panel of Acinetobacter strains (Example 4); format: cell-based
# A. baumannii ATCC 19606 [2] = experiment: MIC without and with sub-inhibitory polymyxin B (Example 4); format: cell-based, Acinetobacter baumannii; conditions: for MIC without PB/MIC + PB: A. baumannii ATCC 19606; for MIC: Acinetobacter baumannii
# A. baumannii ATCC 19606 [3] = experiment: Preliminary MBC without and with sub-inhibitory polymyxin B (Example 4); format: cell-based, Acinetobacter baumannii; conditions: Acinetobacter baumannii
# A. baumannii J2 = experiment: MIC without and with sub-inhibitory polymyxin B (Example 4); format: cell-based, Acinetobacter baumannii; conditions: for MIC without PB/MIC + PB: A. baumannii J2
# [4] = test system: Acinetobacter sp. (H064200250); experiment: as above; format: cell-based; conditions: for MIC: Acinetobacter
# A. baumannii A329 [5] = experiment: as above; format: cell-based, Acinetobacter baumannii; conditions: A. baumannii A329; +0.06 μg/ml PB; 2nd experiment
# A. baumannii A329 [6] = experiment: Preliminary MBC without and with sub-inhibitory polymyxin B (Example 4); format: cell-based, Acinetobacter baumannii; conditions: Acinetobacter baumannii, A329, A. baumannii A329, +0.06 μg/ml PB, 2nd experiment, read-out: MBC
# A. baumannii A387 [7] = experiment: MIC without and with sub-inhibitory polymyxin B (Example 4); format: cell-based, Acinetobacter baumannii
# A. baumannii A387 [8] = experiment: Preliminary MBC without and with sub-inhibitory polymyxin B (Example 4); format: cell-based, Acinetobacter baumannii; conditions: Acinetobacter baumannii, A387, read-out: MBC +0.06 μg/ml PB, A. baumannii A387, +0.06 μg/ml polymyxin B, 1st experiment
# A. baumannii A390 [9] = experiment: MIC without and with sub-inhibitory polymyxin B (Example 4); format: cell-based, Acinetobacter baumannii; conditions: +0.06 μg/ml PB, 2nd experiment
# A. baumannii A14 [10] = experiment: Preliminary MBC without and with sub-inhibitory polymyxin B (Example 4); format: cell-based, Acinetobacter baumannii; conditions: 2nd experiment
# How it was run: (§1)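 After plating, cultures are held at 37° C for 18-20 hours; the endpoint is then scored by comparing colony growth against the positive control, with MBC defined as the lowest concentration showing roughly 90% reduction.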
# A. baumannii A390 [11] = experiment: as above; format: cell-based, Acinetobacter baumannii; conditions: Acinetobacter baumannii, A390, A. baumannii A390, +0.06 μg/ml PB, 2nd experiment, read-out: MBC
# How it was run: as §1
# A. baumannii A473 [12] = experiment: as above; format: cell-based, Acinetobacter baumannii; conditions: Acinetobacter baumannii, A473, A. baumannii A473, +0.06 μg/ml PB, 2nd experiment, read-out: MBC
# How it was run: as §1
# A. baumannii NCTC 13301 [13] = experiment: as above; format: cell-based, Acinetobacter baumannii; conditions: Acinetobacter baumannii, NCTC13301, read-out: MBC +[…] PB
# How it was run: as §1
# A. baumannii A401 [14] = experiment: MIC without and with sub-inhibitory polymyxin B (Example 4); format: cell-based, Acinetobacter baumannii; conditions: for MIC: Acinetobacter baumannii
# A. baumannii A401 [15] = experiment: Preliminary MBC without and with sub-inhibitory polymyxin B (Example 4); format: cell-based, Acinetobacter baumannii; conditions: Acinetobacter baumannii
# A. baumannii A472 [16] = experiment: MIC without and with sub-inhibitory polymyxin B (Example 4); format: cell-based, Acinetobacter baumannii; conditions: 1st experiment
# A. baumannii A472 [17] = experiment: Preliminary MBC without and with sub-inhibitory polymyxin B (Example 4); format: cell-based, Acinetobacter baumannii; conditions: Acinetobacter baumannii, A472, read-out: MBC +[…] PB, A. baumannii A472; +[…] polymyxin B; preliminary MBC; 1st experiment
# A. baumannii A473 [18] = experiment: MIC without and with sub-inhibitory polymyxin B (Example 4); format: cell-based, Acinetobacter baumannii; conditions: +0.06 μg/ml PB, 2nd experiment
# A. baumannii A489 [19] = experiment: as above; format: cell-based, Acinetobacter baumannii; conditions: for MIC without PB/MIC + PB: A. baumannii A489; for MIC: Acinetobacter baumannii
# A. baumannii A489 [20] = experiment: Preliminary MBC without and with sub-inhibitory polymyxin B (Example 4); format: cell-based, Acinetobacter baumannii; conditions: Acinetobacter baumannii, preliminary MBC
# A. baumannii NCTC 13301 [21] = experiment: MIC without and with sub-inhibitory polymyxin B (Example 4); format: cell-based, Acinetobacter baumannii
# A. baumannii NCTC 13301 [22] = experiment: as above; format: cell-based, Acinetobacter baumannii; conditions: A. baumannii NCTC 13301; +[…] PB; 2nd experiment
# A. baumannii A14 [23] = experiment: as above; format: cell-based, Acinetobacter baumannii; conditions: 2nd experiment
# [24] = A. baumannii A14, +0.06 μg/ml PB
smiles,measurement,setting,value
"Cc1c(-c2ccc(CN)cc2)ccn2c(=O)c(C(=O)O)cc(C3CC3)c12 [Compound 5, 8-(4-aminomethyl-phenyl)-1-cyclopropyl-9-methyl-4-oxo-quinolizine-3-carboxylic acid]","Range ratios MIC without PB/MIC with PB Oct. 1, 2008 n = 8",[1]; 1st experiment,8-16
same,"MIC range with PB (0.25x MIC) Oct. 1, 2008 n = 8","[1]; 1st experiment, […] polymyxin B, ATCC 19606, A329, A390 and A473 not taken",0.25 to 4 µg/mL
same,"Range ratios MIC without PB/MIC with PB Oct. 14, 2008 n = 11",[1]; 2nd experiment,4-32
same,"MIC range with PB (0.25x MIC) Oct. 14, 2008 n = 11","[1]; 2nd experiment, 0.06 μg/ml polymyxin B, all strains except the ATCC strain",0.25 to 8 µg/mL
same,MIC without PB/MIC + PB,"A. baumannii ATCC 19606 [2]; +0.06 μg/ml PB, 2nd experiment",8
same,MIC without PB/MIC + PB,"A. baumannii ATCC 19606 [2]; ratio, PB 0.06 μg/ml, 1st experiment",4
same,MIC,"A. baumannii ATCC 19606 [2]; ATCC19606, A. baumannii ATCC 19606, +0.06 μg/ml PB, 2nd experiment, read-out: MIC",0.06 µg/mL
same,MIC,"A. baumannii ATCC 19606 [2]; ATCC19606, read-out: MIC +0.06 μg/ml PB, A. baumannii ATCC 19606, +0.06 μg/ml polymyxin B, 1st experiment",0.06 µg/mL
same,MBC,"A. baumannii ATCC 19606 [3]; ATCC19606, A. baumannii ATCC 19606, +0.06 μg/ml PB, 2nd experiment, read-out: MBC",0.06 µg/mL
same,MBC,"A. baumannii ATCC 19606 [3]; ATCC19606, read-out: MBC +0.06 μg/ml PB, A. baumannii ATCC 19606, +0.06 μg/ml polymyxin B, 1st experiment",0.06 µg/mL
same,MIC without PB/MIC + PB,"A. baumannii J2; +[…] PB, 2nd experiment",8
same,MIC without PB/MIC + PB,"A. baumannii J2; ratio, PB […], 1st experiment",16
same,MIC,"A. baumannii J2; Acinetobacter baumannii, J2, read-out: MIC +[…] PB, A. baumannii J2, +[…] polymyxin B, 1st experiment",0.5 µg/mL
same,MIC,[4],4 µg/mL
same,MIC without PB/MIC + PB,"[4]; Acinetobacter spp. H064200250 (OXA51), +[…] PB, 2nd experiment",4
same,MIC without PB/MIC + PB,"[4]; Acinetobacter spp. H064200250, ratio, PB […], 1st experiment",16
same,MIC,"[4]; read-out: MIC +[…] PB, Acinetobacter spp. H064200250, +[…] polymyxin B, 1st experiment",1 µg/mL
same,MIC without PB/MIC + PB,A. baumannii A329 [5],1
same,MBC,A. baumannii A329 [6],8 µg/mL
same,MIC without PB/MIC + PB,"A. baumannii A387 [7]; A. baumannii A387, +0.06 μg/ml PB, 2nd experiment",4
same,MIC +0.06 μg/ml PB,"A. baumannii A387 [7]; A. baumannii A387, +0.06 μg/ml polymyxin B, 1st experiment",0.25 µg/mL
same,MIC without PB/MIC + PB,"A. baumannii A387 [7]; A. baumannii A387, ratio, PB 0.06 μg/ml, 1st experiment",8
same,MIC,"A. baumannii A387 [7]; Acinetobacter baumannii, A387, A. baumannii A387, +0.06 μg/ml PB, 2nd experiment, read-out: MIC",1 µg/mL
same,MBC,A. baumannii A387 [8],0.25 µg/mL
same,MIC without PB/MIC + PB,A. baumannii A390 [9]; A. baumannii A390,4
same,MIC,"A. baumannii A390 [9]; Acinetobacter baumannii, A390, A. baumannii A390, read-out: MIC",2 µg/mL
same,MBC,A. baumannii A14 [10]; [24],4 µg/mL
same,MBC,"A. baumannii A14 [10]; Acinetobacter baumannii, A14, A. baumannii A14, without PB, read-out: MBC",16 µg/mL
same,MBC,A. baumannii A390 [11],2 µg/mL
same,MBC,A. baumannii A473 [12],1 µg/mL
same,MBC,A. baumannii NCTC 13301 [13],1 µg/mL
same,MIC without PB/MIC + PB,"A. baumannii A401 [14]; A baumannii A 401, ratio, PB 0.06 μg/ml, 1st experiment",8
same,MIC,"A. baumannii A401 [14]; A401, A baumannii A 401, +0.06 μg/ml PB, 2nd experiment, read-out: MIC",4 µg/mL
same,MIC,"A. baumannii A401 [14]; A401, read-out: MIC +0.06 μg/ml PB, A baumannii A 401, +0.06 μg/ml polymyxin B, 1st experiment",2 µg/mL
same,MBC,"A. baumannii A401 [15]; A401, A baumannii A 401, +0.06 μg/ml PB, 2nd experiment, read-out: MBC",4 µg/mL
same,MBC,"A. baumannii A401 [15]; A401, read-out: MBC +0.06 μg/ml PB, A baumannii A 401, +0.06 μg/ml polymyxin B, 1st experiment",2 µg/mL
same,MIC without PB/MIC + PB,"A. baumannii A472 [16]; A. baumannii A472, ratio, PB […]",8
same,MIC,"A. baumannii A472 [16]; Acinetobacter baumannii, A472, read-out: MIC +[…] PB, A. baumannii A472, +[…] polymyxin B",1 µg/mL
same,MBC,A. baumannii A472 [17],1 µg/mL
same,MIC without PB/MIC + PB,A. baumannii A473 [18]; A. baumannii A473,8
same,MIC,"A. baumannii A473 [18]; Acinetobacter baumannii, A473, A. baumannii A473, read-out: MIC",1 µg/mL
same,MIC without PB/MIC + PB,"A. baumannii A489 [19]; +[…] PB, 2nd experiment",16
same,MIC without PB/MIC + PB,"A. baumannii A489 [19]; ratio, PB […], 1st experiment",8
same,MIC,"A. baumannii A489 [19]; A489, A. baumannii A489, +[…] PB, 2nd experiment, read-out: MIC",0.5 µg/mL
same,MIC,"A. baumannii A489 [19]; A489, read-out: MIC +[…] PB, A. baumannii A489, +[…] polymyxin B, 1st experiment",0.5 µg/mL
same,MBC,"A. baumannii A489 [20]; A489, A. baumannii A489, +[…] PB, 2nd experiment, read-out: MBC",0.5 µg/mL
same,MBC,"A. baumannii A489 [20]; A489, read-out: MBC +[…] PB, A. baumannii A489, +[…] polymyxin B, 1st experiment",1 µg/mL
same,MIC without PB/MIC + PB,"A. baumannii NCTC 13301 [21]; A. baumannii NCTC 13301, ratio, PB […], 1st experiment",16
same,MIC,"A. baumannii NCTC 13301 [21]; Acinetobacter baumannii, NCTC13301, read-out: MIC +[…] PB",1 µg/mL
same,MIC without PB/MIC + PB,A. baumannii NCTC 13301 [22],8
same,MIC,A. baumannii A14 [23]; [24],4 µg/mL
same,MIC without PB/MIC + PB,A. baumannii A14 [23]; [24],4
same,MIC,"A. baumannii A14 [23]; Acinetobacter baumannii, A14, A. baumannii A14, without PB, read-out: MIC",16 µg/mL
